The source made the active and inactive calls.

Assay [1] has as its target T1, DNA repair and recombination protein RAD54-like (Homo sapiens, UniProt Q92698).
T1 sequence (Q92698 whole entry): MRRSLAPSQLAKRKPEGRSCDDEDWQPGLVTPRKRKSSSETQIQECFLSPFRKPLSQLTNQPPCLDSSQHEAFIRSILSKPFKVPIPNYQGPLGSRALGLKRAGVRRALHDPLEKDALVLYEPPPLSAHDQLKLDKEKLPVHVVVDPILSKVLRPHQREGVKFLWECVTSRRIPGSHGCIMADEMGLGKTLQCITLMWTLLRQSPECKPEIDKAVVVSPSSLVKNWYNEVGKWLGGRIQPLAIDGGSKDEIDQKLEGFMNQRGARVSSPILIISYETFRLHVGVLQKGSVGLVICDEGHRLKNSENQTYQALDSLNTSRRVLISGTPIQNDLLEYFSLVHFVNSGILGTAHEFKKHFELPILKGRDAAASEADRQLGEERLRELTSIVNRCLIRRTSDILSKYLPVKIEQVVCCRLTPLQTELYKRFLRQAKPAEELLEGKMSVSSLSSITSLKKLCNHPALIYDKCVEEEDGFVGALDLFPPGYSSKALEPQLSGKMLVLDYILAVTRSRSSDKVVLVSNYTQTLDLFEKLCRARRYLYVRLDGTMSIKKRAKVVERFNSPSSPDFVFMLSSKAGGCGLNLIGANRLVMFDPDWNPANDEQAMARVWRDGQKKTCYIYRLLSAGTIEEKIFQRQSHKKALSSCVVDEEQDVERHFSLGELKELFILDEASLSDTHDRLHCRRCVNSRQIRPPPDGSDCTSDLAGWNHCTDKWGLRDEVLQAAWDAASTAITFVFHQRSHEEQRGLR
Briefly: RAD54 Holliday junction migration blockers – biochemical, fluorescence, cherry-picked samples, dose series, confirmation (AID 651657). It is filed as functional.

In assay [2] the target is T2, Zinc finger protein mex-5 (Caenorhabditis elegans, UniProt Q9XUB2).
T2 sequence (Q9XUB2 whole entry): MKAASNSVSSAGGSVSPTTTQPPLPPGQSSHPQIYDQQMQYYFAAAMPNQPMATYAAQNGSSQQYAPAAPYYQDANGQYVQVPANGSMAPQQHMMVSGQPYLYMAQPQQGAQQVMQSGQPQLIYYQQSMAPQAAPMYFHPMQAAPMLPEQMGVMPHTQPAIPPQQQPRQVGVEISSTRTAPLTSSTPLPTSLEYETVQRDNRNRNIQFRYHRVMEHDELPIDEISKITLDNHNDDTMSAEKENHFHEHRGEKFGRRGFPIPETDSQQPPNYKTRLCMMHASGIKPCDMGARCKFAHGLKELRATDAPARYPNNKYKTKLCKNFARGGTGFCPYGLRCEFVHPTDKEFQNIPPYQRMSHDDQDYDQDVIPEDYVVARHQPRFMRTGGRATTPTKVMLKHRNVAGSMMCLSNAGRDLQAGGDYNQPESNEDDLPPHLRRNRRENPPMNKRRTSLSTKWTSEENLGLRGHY
Briefly: potency of MEX-5 RNA-binding blockers – biochemical, C. elegans, fluorescence polarization, dose response (AID 1960). A general note: In fluorescence polarisation assays a small probe gives low polarisation when free and higher when bound to something large.

Assay [3] has as its target T3, Tyrosine-protein phosphatase non-receptor type 22 (Homo sapiens, UniProt Q9Y2R2).
T3 sequence (Q9Y2R2 whole entry): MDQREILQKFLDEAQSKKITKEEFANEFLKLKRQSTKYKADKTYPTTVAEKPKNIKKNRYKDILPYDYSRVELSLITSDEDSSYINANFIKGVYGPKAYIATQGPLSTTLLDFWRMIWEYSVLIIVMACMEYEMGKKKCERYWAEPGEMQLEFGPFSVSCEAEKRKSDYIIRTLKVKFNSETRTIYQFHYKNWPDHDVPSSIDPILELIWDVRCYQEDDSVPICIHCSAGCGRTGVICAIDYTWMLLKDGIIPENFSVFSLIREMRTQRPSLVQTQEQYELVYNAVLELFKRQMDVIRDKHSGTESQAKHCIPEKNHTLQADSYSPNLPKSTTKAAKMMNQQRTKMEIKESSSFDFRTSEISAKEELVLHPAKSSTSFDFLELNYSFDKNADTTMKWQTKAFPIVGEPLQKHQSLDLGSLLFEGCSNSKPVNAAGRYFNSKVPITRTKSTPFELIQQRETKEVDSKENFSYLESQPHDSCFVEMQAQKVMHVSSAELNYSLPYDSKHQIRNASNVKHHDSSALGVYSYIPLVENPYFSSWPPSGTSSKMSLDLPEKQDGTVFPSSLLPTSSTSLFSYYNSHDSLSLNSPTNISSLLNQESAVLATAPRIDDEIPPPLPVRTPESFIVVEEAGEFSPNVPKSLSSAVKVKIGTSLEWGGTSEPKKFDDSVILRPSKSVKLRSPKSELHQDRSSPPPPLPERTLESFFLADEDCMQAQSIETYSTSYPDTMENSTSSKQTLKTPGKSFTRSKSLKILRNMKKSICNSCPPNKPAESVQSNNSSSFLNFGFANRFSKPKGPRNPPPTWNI
Briefly: LYP1 Fluorescent Assay using OMFP substrate for In Vitro dose response studies. [Related pubchem assays (depositor defined):AID1779, AID1784, AID435024].

Assay [4] has as its target T4, Dual specificity protein phosphatase 6 (Rattus norvegicus, UniProt Q64346).
T4 sequence (Q64346 whole entry): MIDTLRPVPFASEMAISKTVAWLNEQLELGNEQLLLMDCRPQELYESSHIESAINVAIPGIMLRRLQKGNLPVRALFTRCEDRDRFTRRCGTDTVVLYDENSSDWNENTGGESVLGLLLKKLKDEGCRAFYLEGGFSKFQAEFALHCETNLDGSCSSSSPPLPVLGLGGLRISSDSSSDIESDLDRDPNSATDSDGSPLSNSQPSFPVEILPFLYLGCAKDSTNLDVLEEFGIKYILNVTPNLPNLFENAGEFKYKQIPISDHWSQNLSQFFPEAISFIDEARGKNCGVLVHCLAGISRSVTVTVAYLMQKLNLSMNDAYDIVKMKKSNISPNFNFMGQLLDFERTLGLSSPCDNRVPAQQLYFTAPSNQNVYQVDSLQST
Briefly: inhibition of rat DUSP6 enzyme activity – biochemical, in vitro, primary screen (AID 425).

The target of assay [5] is Induced myeloid leukemia cell differentiation protein Mcl-1 (Homo sapiens, UniProt Q07820). It is filed as functional.
Assay [6] deals with T3, Tyrosine-protein phosphatase non-receptor type 22. It is filed as functional.
The target of assay [7] is Kappa-type opioid receptor (Homo sapiens, UniProt P41145). It is filed as functional.
The test system of the next assay is INS1. Briefly: INS-1E survival protection against cytokine death – cell-based, luminescence, retest, dose response (AID 449756).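 Further: cell death triggered by IL-1 beta plus TNF-alpha plus IFN-gamma mixture; protective hits raise ATP signal compared with cytokine alone wells.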 It is filed as functional. Conditions: Rattus norvegicus.
Assay [8] concerns the target Glucose-6-phosphate 1-dehydrogenase (Homo sapiens, UniProt P11413). Briefly: inhibition of Homo sapiens G6PD, dose series – biochemical, fluorescence, selectivity assay for P. falciparum G6PD inhibitor project, dose response (AID 504792). It is filed as functional.
Assay [9] deals with Matrix metalloproteinase-14 (Homo sapiens, UniProt P50281). In words: Dose Response confirmation of uHTS hits for a small molecule inhibitors of MT1-MMP activation in a fluorescence assay set 1. It is filed as functional.

Sequence of Kappa-type opioid receptor (P41145 whole entry): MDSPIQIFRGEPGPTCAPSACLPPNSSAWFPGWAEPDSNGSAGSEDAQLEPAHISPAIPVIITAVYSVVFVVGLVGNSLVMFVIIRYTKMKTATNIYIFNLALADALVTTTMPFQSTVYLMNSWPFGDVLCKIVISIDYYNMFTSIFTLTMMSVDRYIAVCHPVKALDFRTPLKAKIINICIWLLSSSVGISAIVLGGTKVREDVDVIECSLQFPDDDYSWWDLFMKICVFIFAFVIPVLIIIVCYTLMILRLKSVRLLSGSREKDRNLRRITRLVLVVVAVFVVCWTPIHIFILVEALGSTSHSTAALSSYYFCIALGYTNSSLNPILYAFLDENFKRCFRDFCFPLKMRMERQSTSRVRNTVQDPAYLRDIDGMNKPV
Sequence of Induced myeloid leukemia cell differentiation protein Mcl-1 (Q07820 whole entry): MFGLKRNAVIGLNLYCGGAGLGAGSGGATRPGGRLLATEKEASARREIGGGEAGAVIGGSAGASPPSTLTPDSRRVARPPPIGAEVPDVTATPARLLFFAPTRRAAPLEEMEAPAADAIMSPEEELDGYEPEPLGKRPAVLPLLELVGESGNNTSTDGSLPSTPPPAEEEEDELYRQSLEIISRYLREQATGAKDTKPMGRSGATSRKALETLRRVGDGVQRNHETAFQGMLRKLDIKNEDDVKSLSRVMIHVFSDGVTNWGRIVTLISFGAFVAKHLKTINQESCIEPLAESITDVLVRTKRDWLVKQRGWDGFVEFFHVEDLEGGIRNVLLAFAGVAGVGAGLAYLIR
Sequence of Glucose-6-phosphate 1-dehydrogenase (P11413 whole entry): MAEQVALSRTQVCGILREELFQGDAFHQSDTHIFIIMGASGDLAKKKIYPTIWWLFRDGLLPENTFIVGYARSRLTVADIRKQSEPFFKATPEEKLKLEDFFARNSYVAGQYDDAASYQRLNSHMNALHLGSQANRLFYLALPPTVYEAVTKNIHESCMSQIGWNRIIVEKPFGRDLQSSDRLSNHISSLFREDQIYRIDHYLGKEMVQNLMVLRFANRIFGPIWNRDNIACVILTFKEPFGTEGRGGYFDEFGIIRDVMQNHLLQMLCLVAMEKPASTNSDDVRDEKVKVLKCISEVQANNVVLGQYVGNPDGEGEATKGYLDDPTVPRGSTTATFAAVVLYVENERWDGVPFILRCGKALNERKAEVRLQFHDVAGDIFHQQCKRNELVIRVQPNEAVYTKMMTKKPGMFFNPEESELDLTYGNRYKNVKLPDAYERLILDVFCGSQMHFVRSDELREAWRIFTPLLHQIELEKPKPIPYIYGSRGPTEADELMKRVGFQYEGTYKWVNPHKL

One may read the AC50 as the midpoint of the concentration-response curve, whichever way the signal moves. One may read the EC50 as the concentration giving half of the maximal effect. On to `CCN(CC)CCN1C(=O)c2cccc3cc(N)cc(c23)C1=O`, for which, in assay [1], the AC50 was 8.83 µM (active). Further, in assay [2], the EC50 is 5.13 µM (inconclusive).
By IC50 is commonly meant the concentration that gives 50% inhibition. On to `O=C(O)c1cccc(-n2cccc2/C=C2/NC(=O)N(c3ccc(Cl)cc3)C2=O)c1`, for which the IC50 in [3] is 4.54 µM (active); in assay [4], 3.28 µM (active); in assay [5], 2.69 µM (active); in assay [6] it was 4.4 µM (active).
On to `C=C1C(=O)O[C@@H]2C[C@@H](C)[C@@H]3C=CC(=O)[C@@]3(C)[C@@H](OC(=O)CC(=O)O[C@H]3[C@@H]4C(=C)C(=O)O[C@@H]4C[C@@H](C)[C@@H]4C=CC(=O)[C@]43C)[C@H]12`, for which the IC50 is 13.4 µM (active) in assay [7] and > 80 µM (inactive) in assay [8]. Besides, the AC50 in the assay with INS1 was 0.312 µM (active).
Consider `O=S(=O)(O)c1cc(Cl)cc(N=Nc2ccc(O)cc2O)c1O`, for which the IC50 in assay [9] was 1.41 µM (active).

These data come from ChEMBL document CHEMBL1201862, “PubChem BioAssay data set” (2004).
